The source of these data is patent US20210238225A1, “PEPTIDOMIMETIC INHIBITORS OF THE PEPTIDYL-PROLYL CIS/TRANS ISOMERASE (PIN1)” (DANA-FARBER CANCER INSTITUTE, INC., priority 2018, published 2021).

Where two headings read alike, the source gives them in different places. Non-standard residues stand in square brackets, D forms with d. Residues, ends and D or L forms follow the SMILES beside them. *: point of attachment. Ala(4-thiazolyl) = N[C@@H](Cc1cscn1)C(=O)O; Phe(4-F) = N[C@@H](Cc1ccc(F)cc1)C(=O)O; NH(4-Me-benzyl) = Cc1ccc(CN*)cc1; Cit = NC(=O)NCCC[C@H](N)C(=O)O; Pip = O=C(O)[C@@H]1CCCCN1; NHcBu = C1CC(N*)C1; NHtBu = CC(C)(C)N*; ClAc = O=C(CCl)*

For one test, the target named is Pin1 (Homo sapiens, UniProt Q13526). Description: Cellular target engagement, live cell biotin competition assay in TNBC MDA-MB-231 cells. The class given is cell-based. Set-up: endogenous in cells; host or cells: MDA-MB-231. To be noted: TNBC MDA-MB-231 cells, 5 hours treatment; concentration under E7. As to the method:
TNBC MDA-MB-231 cells were plated in 10 cm plates with 2.5 million cells per plate in 6 mL of media. The day after plating, cells were treated with the indicated concentrations of compound 18 for 5 hours. The cells were washed 2× with 0.9% NaCl (1 mL per 10 cm plate), and collected by scraping with a cell scraper. Cells were lysed in lysis buffer (50 mM Hepes pH 7.5, 150 mM NaCl, 1 mM EDTA, 10% v/v glycerol, 0.5% v/v […], protease inhibitors (Roche)) using 210 μL of cell lysis buffer per 10 cm plate of cells. After clarifying by centrifugation (14,000 rpm for 15 min at 4° C.), 5 μL of each lysate sample was combined with 5 μL of 2× LDS+10% β-mercaptoethanol, boiled for 5 minutes, and set aside for the input loading control (later to be loaded directly in the gel). Then, 200 μL of each lysate was then incubated with 1 μM of compound 2-32 (biotin probe compound) for 1 hour at 4° C. Lysates were then incubated with streptavidin agarose resin (30 μL of 1:1 beads: lysis buffer slurry) (Thermo Scientific™, cat. #20349) for 2 hours at 4° C. Beads were washed 4 times with 500 μL of washing buffer (50 mM Hepes, pH7.5, 10 mM NaCl, 1 mM EDTA, 10% glycerol), then pelleted by centrifugation and dried. The beads were then boiled at 95° C. for 5 minutes in 30 μL of 2× LDS+10% β-mercaptoethanol. Lysates were probed for specified proteins by western blotting using the Bolt system (Life Technologies™).

The target of the next test is Pin1 (GST-Pin1) (Homo sapiens, UniProt Q13526). In words: Fluorescence polarization (FP) assay, binding to Pin1. The following applies: competition with fluorescein-labeled peptide probe, 12 hours pre-incubation at 4° C., Kenakin Ki equation.
Chain of Pin1 (GST-Pin1) (Q13526 whole entry): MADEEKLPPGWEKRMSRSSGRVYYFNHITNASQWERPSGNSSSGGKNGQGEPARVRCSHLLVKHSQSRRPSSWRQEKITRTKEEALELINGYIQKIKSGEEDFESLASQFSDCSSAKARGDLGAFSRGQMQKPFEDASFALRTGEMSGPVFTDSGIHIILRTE

Chain of Pin1 (Q13526 whole entry): as above

`COC(=O)CC[C@H](NC(=O)CCl)C(=O)N1CCCC[C@H]1C(=O)N[C@@H](Cc1c[nH]c2ccccc12)C(=O)N[C@@H](CCCNC(N)=O)C(=O)NCc1ccc(C)cc1` [Compound 11-4, Methyl (S)-5-((S)-2-(((S)-3-(1H-indol-3-yl)-1-(((S)-1-((4-methylbenzyl)amino)-1-oxo-5-ureidopentan-2-yl)amino)-1-oxopropan-2-yl)carbamoyl)piperidin-1-yl)-4-(2-chloroacetamido)-5-oxopentanoate] (ClAc-E(OMe)[Pip]W[Cit]-{NH(4-Me-benzyl)}): the “Cellular Target Engagement?” value on Pin1 was “No”. Besides, on Pin1 (GST-Pin1) (Ki, μM (FP Assay)), the Ki came out at 0.03 µM.
For the molecule `Cc1ccc(CNC(=O)[C@H](Cc2ccc(F)cc2)NC(=O)[C@H](Cc2c[nH]c3ccccc23)NC(=O)[C@@H]2CCCCN2C(=O)[C@H](CCC(=O)O)NC(=O)CCl)cc1` [Compound 11-5, (S)-4-(2-chloroacetamido)-5-((S)-2-(((S)-1-(((S)-3-(4-fluorophenyl)-1-((4-methylbenzyl)amino)-1-oxopropan-2-yl)amino)-3-(1H-indol-3-yl)-1-oxopropan-2-yl)carbamoyl)piperidin-1-yl)-5-oxopentanoic acid] (ClAc-E[Pip]W[Phe(4-F)]-{NH(4-Me-benzyl)}), the “Cellular Target Engagement?” value at Pin1 is recorded as “No”. In addition, the Ki at Pin1 (GST-Pin1) (read-out: Ki, μM (FP Assay)) was determined as 0.13 µM.
For `Cc1ccc(CNC(=O)[C@H](CCCNC(N)=O)NC(=O)[C@H](Cc2c[nH]c3ccccc23)NC(=O)[C@@H]2CCCCN2C(=O)[C@H](CCC(=O)O)NC(=O)CCl)cc1` [Compound 11-6, (S)-5-((S)-2-(((S)-3-(1H-indol-3-yl)-1-(((S)-1-((4-methylbenzyl)amino)-1-oxo-5-ureidopentan-2-yl)amino)-1-oxopropan-2-yl)carbamoyl)piperidin-1-yl)-4-(2-chloroacetamido)-5-oxopentanoic acid] (ClAc-E[Pip]W[Cit]-{NH(4-Me-benzyl)}), the “Cellular Target Engagement?” value on Pin1 was “No”. The Ki on Pin1 (GST-Pin1) (read-out: Ki, μM (FP Assay)) worked out at 0.01 µM.
Regarding `COC(=O)CC[C@H](NC(=O)CCl)C(=O)N1CCCC[C@H]1C(=O)N[C@@H](Cc1c[nH]c2ccccc12)C(=O)N[C@@H](Cc1ccc(F)cc1)C(=O)NC(C)(C)C` [Compound 11-18, Methyl (S)-5-((S)-2-(((S)-1-(((S)-1-(tert-butylamino)-3-(4-fluorophenyl)-1-oxopropan-2-yl)amino)-3-(1H-indol-3-yl)-1-oxopropan-2-yl)carbamoyl)piperidin-1-yl)-4-(2-chloroacetamido)-5-oxopentanoate] (ClAc-E(OMe)[Pip]W[Phe(4-F)]-NHtBu), at Pin1, the “Cellular Target Engagement?” value is “No”. Further, the Ki on Pin1 (GST-Pin1) (Ki, μM (FP Assay)) came to 0.134 µM.
Consider `COC(=O)CC[C@H](NC(=O)CCl)C(=O)N1CCCC[C@H]1C(=O)N[C@@H](Cc1c[nH]c2ccccc12)C(=O)N[C@@H](Cc1ccc(F)cc1)C(=O)NC1CCC1` [Compound 11-19, Methyl (S)-4-(2-chloroacetamido)-5-((S)-2-(((S)-1-(((S)-1-(cyclobutylamino)-3-(4-fluorophenyl)-1-oxopropan-2-yl)amino)-3-(1H-indol-3-yl)-1-oxopropan-2-yl)carbamoyl)piperidin-1-yl)-5-oxopentanoate] (ClAc-E(OMe)[Pip]W[Phe(4-F)]-NHcBu), for which the “Cellular Target Engagement?” value at Pin1 is “No”. The molecule also had a Ki on Pin1 (GST-Pin1) (Ki, μM (FP Assay)) of 0.146 µM.
For `COC(=O)CC[C@H](NC(=O)CCl)C(=O)N1CCCC[C@H]1C(=O)N[C@@H](Cc1c[nH]c2ccccc12)C(=O)N[C@@H](Cc1cscn1)C(=O)NCc1ccc(C)cc1` [Compound 11-28, Methyl (S)-5-((S)-2-(((S)-3-(1H-indol-3-yl)-1-(((S)-1-((4-methylbenzyl)amino)-1-oxo-3-(thiazol-4-yl)propan-2-yl)amino)-1-oxopropan-2-yl)carbamoyl)piperidin-1-yl)-4-(2-chloroacetamido)-5-oxopentanoate] (ClAc-E(OMe)[Pip]W[Ala(4-thiazolyl)]-{NH(4-Me-benzyl)}) the same measures were “No” and 0.099 µM.
